Experimental data: patent US11040947B2, “Substituted quinazolines as matrix metalloproteinase-9 hemopexin domain inhibitors” (The Research Foundation for The State University of New York, priority 2017, dated 2021)

Legend:
[1] = target: T1, MMP-9 association with CD44 and EGFR (Homo sapiens, UniProt P14780); experiment: co-immunoprecipitation of endogenous CD44 and EGFR with MMP-9 in HT1080 cells; assay type: cell-based; details: 50 μM overnight
T1 construct: expressed in transfected cells; host or cells: HT1080 human fibrosarcoma cells (MMP-9 transfected; CD44 and EGFR endogenous)
T1 sequence (P14780 94-707): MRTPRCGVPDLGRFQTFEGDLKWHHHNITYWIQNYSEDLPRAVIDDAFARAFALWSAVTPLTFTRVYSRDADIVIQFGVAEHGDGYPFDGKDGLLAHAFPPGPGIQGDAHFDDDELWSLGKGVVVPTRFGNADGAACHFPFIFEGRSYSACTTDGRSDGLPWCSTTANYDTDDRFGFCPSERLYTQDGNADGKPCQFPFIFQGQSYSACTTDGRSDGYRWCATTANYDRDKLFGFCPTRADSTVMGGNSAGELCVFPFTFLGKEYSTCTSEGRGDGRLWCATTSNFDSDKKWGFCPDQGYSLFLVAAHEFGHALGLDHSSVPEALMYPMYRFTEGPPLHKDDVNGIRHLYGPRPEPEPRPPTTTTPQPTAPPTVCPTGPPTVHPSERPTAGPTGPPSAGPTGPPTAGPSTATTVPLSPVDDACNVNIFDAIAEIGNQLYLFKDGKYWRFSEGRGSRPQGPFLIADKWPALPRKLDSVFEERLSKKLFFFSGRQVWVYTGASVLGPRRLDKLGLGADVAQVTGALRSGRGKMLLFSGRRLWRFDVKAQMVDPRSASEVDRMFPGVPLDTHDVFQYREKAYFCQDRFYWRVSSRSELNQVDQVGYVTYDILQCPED

[2] = target: T2, APMA-activated recombinant proMMP-9 (Homo sapiens, UniProt P14780); experiment: MMP-9 catalytic activity with fluorogenic peptide; assay type: biochemical; details: 10 μM fluorogenic peptide, monitored over 2 hours
T2 construct: made in house
T2 sequence (P14780 107-707 limits assumed): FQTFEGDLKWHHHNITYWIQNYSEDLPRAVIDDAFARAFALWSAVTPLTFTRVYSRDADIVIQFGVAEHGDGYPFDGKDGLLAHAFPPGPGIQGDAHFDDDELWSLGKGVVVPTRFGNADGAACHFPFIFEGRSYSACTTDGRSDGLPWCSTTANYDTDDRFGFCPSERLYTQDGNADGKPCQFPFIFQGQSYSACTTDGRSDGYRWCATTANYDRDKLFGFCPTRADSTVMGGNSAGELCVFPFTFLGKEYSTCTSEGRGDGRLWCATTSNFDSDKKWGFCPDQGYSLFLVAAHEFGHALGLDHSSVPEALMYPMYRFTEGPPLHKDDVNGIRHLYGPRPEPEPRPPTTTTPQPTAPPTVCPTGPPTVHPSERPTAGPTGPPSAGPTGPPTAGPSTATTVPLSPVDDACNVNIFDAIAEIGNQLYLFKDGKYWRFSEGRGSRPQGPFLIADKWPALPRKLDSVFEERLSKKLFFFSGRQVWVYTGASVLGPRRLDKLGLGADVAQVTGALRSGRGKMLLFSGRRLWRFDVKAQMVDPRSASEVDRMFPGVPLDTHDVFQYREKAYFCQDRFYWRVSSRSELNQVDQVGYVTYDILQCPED
Method: Recombinant proMMP-9 protein was purified and incubated overnight in a 37° C. water bath in TNC buffer+1 mM APMA to artificially activate the protein.

[3] = system: proMMP9-mediated migration of COS-1 cells; experiment: two-dimensional collagen dot migration assay, COS-1 cells overexpressing proMMP-9; assay type: cell-based; details: for inhibition at 50 µM: Chlorocebus aethiops
Method: This assay was initially used to test the efficacy of analogs at a single concentration, 50 μM.
Cells were mixed with type I collagen solution with or without compound, dotted onto a 96-well plate, and allowed to migrate for 18 hours. They were then fixed, stained and scored for extent of migration.

[4] = system: Src^Tyr418, FAK^Tyr576/577, PAX^Tyr118 phosphorylation; experiment: phosphorylation of Src and downstream targets in HT1080 cells; assay type: cell-based, Human; details: 50 μM
Method: (§1) HT1080 cells transiently co-transfected with tagged MMP-9 cDNAs were prepared as described above.

[5] = system: proMMP-14-mediated migration of COS-1 cells; experiment: two-dimensional dot migration assay, COS-1 cells stably expressing proMMP-14; assay type: cell-based
Method: (§2) To test whether compound 3c is specific for inhibiting only proMMP9-mediated migration, a two-dimensional dot migration assay was performed using COS-1 cells engineered to stably express vector control pQCXIP, proMMP-2, proMMP-9, or proMMP-14 cDNA vectors. An immunoblot was performed to confirm protein expression and proper localization of each MMP (MMP-2/-9 are secreted while MMP-14 is membrane bound).

[6] = system: HT1080 cells stably expressing GFP; experiment: chorioallantoic membrane (CAM) assay, invasion; assay type: in vivo, chicken embryo; details: 100 μM stock solution (final estimated 0.5 μM), vs DMSO or 1f
Method: HT1080 cells stably expressing GFP were mixed with a type I collagen solution (3 mg/mL) and seeded atop the CAM to ensure the cells localized to a specific area. […] The invasion of cancer cells through the epithelium and basement membrane of the upper CAM into connecting tissue was examined by hematoxylin and eosin staining in addition to fluorescence microscopy for GFP^+ cells.

[7] = system: proMMP-2-mediated migration of COS-1 cells; experiment: two-dimensional dot migration assay, COS-1 cells stably expressing proMMP-2; assay type: cell-based
Method: as §2

[8] = system: proMMP9-mediated migration of COS-1 cells; experiment: two-dimensional dot migration assay, COS-1 cells stably expressing proMMP-9; assay type: cell-based
Method: as §2

[9] = system: EGFR^Tyr1068, AKT^Ser473, Erk1/2^Thr202/Tyr204 phosphorylation; experiment: phosphorylation of EGFR and downstream targets in HT1080 cells; assay type: cell-based, Human; details: 50 μM overnight
[10] = system: MMP-9 at the cell surface of HT1080 cells; experiment: MMP-9 cell surface localization, immunofluorescence in HT1080 cells; assay type: cell-based, Human
Method: HT1080 cells were fixed in 4% paraformaldehyde then subsequently incubated with anti-MMP-9 in addition to anti-α4 and/or β1 integrin antibodies to monitor relative levels of localization of these proteins at the cell surface. The cells were counterstained with DAPI nuclear dye.

HT1080 cells [11] = experiment: chorioallantoic membrane (CAM) assay, angiogenesis; assay type: in vivo, chicken embryo; details: 100 μM stock solution (final estimated 0.5 μM), 4-day incubation, vs DMSO and 1f
Method: A CAM assay was carried out to evaluate angiogenic and invasive potential of HT1080 cells after treatment with 3c. […] After a 4-day incubation, neovascularization was imaged and quantified.

[12] = target: T3, MMP-9 interaction with α4/β1 integrin (Homo sapiens, UniProt P14780); experiment: co-immunoprecipitation of endogenous integrin with MMP-9 in HT1080 cells; assay type: cell-based; details: 50 μM
T3 construct: expressed in transfected cells; host or cells: HT1080 cells (MMP-9 transfected; integrin endogenous)
T3 sequence (P14780 94-707): as the sequence (P14780 94-707) above
Method: as §1

HT1080 cells [13] = experiment: cell adhesion to collagen or fibronectin coated plate; assay type: cell-based, Human; details: 37° C. 30 min
Method: A 96-well plate was coated with a thin layer of either collagen or fibronectin (5 μg/ml in PBS) substrate before use. HT1080 cells were then seeded onto wells and incubated at 37° C. for 30 min in the presence of various inhibitors. Wells were washed and cells were fixed in 4% paraformaldehyde and stained with DAPI. Images of each 96-well were microscopically captured and counted for the number of cells still adherent to the coated surface using automated computer software.

[14] = system: FAK and PAX adhesion junctions in HT1080 cells; experiment: focal adhesion complexes, immunofluorescence in HT1080 cells; assay type: cell-based, Human
proMMP-9 = target: T4, proMMP-9 (Homo sapiens, UniProt P14780); experiment: proMMP-9 tryptophan fluorescence blue shift binding assay; details: binding to proMMP-9, tryptophan fluorescence
T4 construct: Purified recombinant MMP-9 (50 nmol/L) or MMP-9/MMP-2PEX (50 nmol/L) was diluted in buffer
T4 sequence (P14780 20-707 limits assumed): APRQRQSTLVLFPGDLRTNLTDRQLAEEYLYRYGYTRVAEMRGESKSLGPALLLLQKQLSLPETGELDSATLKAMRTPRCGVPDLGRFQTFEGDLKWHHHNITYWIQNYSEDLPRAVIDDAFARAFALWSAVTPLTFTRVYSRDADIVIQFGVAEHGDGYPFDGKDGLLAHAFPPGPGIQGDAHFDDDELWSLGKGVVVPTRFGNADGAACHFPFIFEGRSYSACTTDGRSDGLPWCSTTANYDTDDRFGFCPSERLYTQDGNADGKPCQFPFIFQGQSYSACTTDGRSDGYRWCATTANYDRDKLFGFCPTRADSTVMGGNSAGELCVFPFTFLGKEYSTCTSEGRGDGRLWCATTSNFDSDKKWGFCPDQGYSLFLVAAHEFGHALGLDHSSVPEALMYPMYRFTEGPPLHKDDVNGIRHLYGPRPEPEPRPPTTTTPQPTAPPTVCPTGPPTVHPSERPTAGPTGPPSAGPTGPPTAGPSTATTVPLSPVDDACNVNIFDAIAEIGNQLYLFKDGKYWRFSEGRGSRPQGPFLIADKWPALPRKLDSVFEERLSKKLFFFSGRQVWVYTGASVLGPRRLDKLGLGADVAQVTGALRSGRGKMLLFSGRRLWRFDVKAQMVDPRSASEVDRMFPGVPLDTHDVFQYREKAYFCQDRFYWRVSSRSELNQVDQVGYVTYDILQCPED
Method: A blue shift in proMMP-9 tryptophan fluorescence was monitored to determine the binding affinity of all compounds. Binding of a test compound to MMP-9 was assayed by observing the change of tryptophan emission upon binding. Purified recombinant MMP-9 (50 nmol/L) or MMP-9/MMP-2PEX (50 nmol/L) was diluted in buffer (50 mmol/L Tris-HCl, 60 mmol/L KCl, and 0.05% Tween 20, pH 7.4) in the presence or absence of the test compound. As a control for protein stability and loss, an analogous buffer solution was added to the protein. The protein sample was excited at 280 nm and emission scans were collected from 290 to 400 nm, using slit widths of 0.3 nm on a QM 4/200SE spectrofluorimeter with double excitation and emission monochromators. Three emission scans were collected and averaged at each concentration. The Kd was determined using the Prism software package (GraphPad V5) to fit the data to Equation (Δ). λmax=(λmax^∞×[2])/(Kd+[2]) (A) in which λmax is the wavelength at which maximal fluorescence of the protein was observed.

[15] = system: COS-1 cells stably expressing vector control or proMMP-9; experiment: acute cytotoxicity in COS-1 cells; assay type: cell-based; details: 100 nM staurosporine (positive control), 24 hours
Method: Compound 3c was evaluated for acute cytotoxicity. COS-1 cells stably expressing either vector control or proMMP-9 cDNA were treated with 50 μM 3c for 24 hours. As negative and positive controls, cells were treated with DMSO alone or 100 nM staurosporine (STS), an apoptosis inducer, respectively. […] A non-statistically significant 8% decrease in cell growth occurred after treatment with 50 μM of compound 3c. These experiments were repeated in endogenous MMP-9 expressing HT1080 fibrosarcoma cells, which were analyzed for chronic toxicity (cells were re-treated every three days for a total of nine days).

Structure (SMILES)	inhibition at 50 µM ([3]; 50 μM, 18 hours)	Kd (proMMP-9)	melting point	further results
CCCc1cc(=O)nc(SCC(=O)Nc2ccc(OC(F)F)cc2)[nH]1 [Compound 1a, N-(4-Difluoromethoxyphenyl)-2-(4-oxo-6-propyl-1,4-dihydropyrimidin-2-ylthio)acetamide]				endogenous CD44 and EGFR co-immunoprecipitation [1]: reduced endogenous CD44 and EGFR co-immunoprecipitation; inhibition of MMP-9 catalytic activity [2]: No inhibition of the catalytic activity was observed; inhibitor effectiveness at concentrations above 50 μM ([3]; above 50 μM): did not increase inhibitor effectiveness; Src^Tyr418 phosphorylation and phosphorylation of FAK^Tyr576/577 and PAX^Tyr118 [4]: reduced Src^Tyr418 phosphorylation; inhibition of proMMP-14-mediated migration [5]: only inhibited proMMP9-mediated migration; invasion of CAM tissue [6]: reduced invasion of CAM tissue; inhibition of proMMP-2-mediated migration [7]: only inhibited proMMP9-mediated migration; inhibition of proMMP-9-mediated migration [8]: only inhibited proMMP9-mediated migration; phosphorylation of EGFR^Tyr1068 and downstream targets AKT^Ser473 and Erk1/2^Thr202/Tyr204 [9]: reduced phosphorylation; localization of MMP-9 on the cell surface [10]: loss of MMP-9 from the cell surface; angiogenic potential of HT1080 cells (neovascularization) (HT1080 cells [11]): significantly reduced the angiogenic potential of HT1080 cells; endogenous α4β1 integrin co-immunoprecipitation [12]: reduced endogenous α4β3 integrin co-immunoprecipitation; cellular adhesion (HT1080 cells [13]): inhibited cellular adhesion; formation of FAK and PAX adhesion junctions ([14]; 50 μM overnight): A decrease in the formation of FAK and PAX adhesion junctions
CCCc1cc(=O)nc(SCC(=O)Nc2ccccc2)[nH]1 [Compound 1b, 2-(4-Oxo-6-propyl-1,4-dihydropyrimidin-2-ylthio)-N-phenylacetamide]	12 ± 3%	4500 ± 600 nM	170 °C (dec.)	
CCCc1cc(=O)nc(SCC(=O)Nc2ccc(F)cc2)[nH]1 [Compound 1c, N-(4-Fluorophenyl)-2-(4-oxo-6-propyl-1,4-dihydropyrimidin-2-ylthio)acetamide]	29 ± 4%	3800 ± 600 nM	191 to 194 °C	
CCCc1cc(=O)nc(SCC(=O)Nc2nc3ccccc3[nH]2)[nH]1 [Compound 1d, N-(1H-benzo[d]imidazol-2-yl)-2-(4-oxo-6-propyl-1,4-dihydropyrimidin-2-ylthio)acetamide]	61 ± 2%	1200 ± 200 nM	217 °C (dec.)	
CCCc1cc(=O)nc(SCC(=O)N(C)c2ccccc2)[nH]1 [Compound 1f, 2-(4-Oxo-6-propyl-1,4-dihydropyrimidin-2-ylthio)-N(methyl)-phenylacetamide, reference compound]				% Inhibition of proMMP9-Mediated Migration at 50 μM ([3]; 50 μM, 18 hours): 2 ± 6%; localization of MMP-9 on the cell surface [10]: did not disrupt the localization of MMP-9 on the cell surface; cellular adhesion (HT1080 cells [13]): no affect on cell adhesion
CCCc1cc(=O)nc(SCCCC(=O)Nc2ccc(OC(F)F)cc2)[nH]1 [Compound 2a, N-(4-Difluoromethoxyphenyl)-4-(4-oxo-6-propyl-1,4-dihydropyrimidin-2-ylthio)butanamide]	63 ± 4%	1000 ± 200 nM		
CCCc1cc(=O)nc(SCCCC(=O)Nc2ccc(F)cc2)[nH]1 [Compound 2c, N-(4-Fluorophenyl)-4-(4-oxo-6-propyl-1,4-dihydropyrimidin-2-ylthio)butanamide]	68 ± 3%	910 ± 100 nM	180 to 182 °C	
O=C(CCCSc1nc2c(c(=O)[nH]1)CCCC2)Nc1ccc(OC(F)F)cc1 [Compound 3a, N-(4-Difluoromethoxyphenyl)-4-(4-oxo-3,4,5,6,7,8-hexahydroquinazolin-2-ylthio)butanamide]	74 ± 2%	600 ± 100 nM	197 to 198 °C	
O=C(CCCSc1nc2c(c(=O)[nH]1)CCCC2)Nc1ccccc1 [Compound 3b, 4-(4-Oxo-3,4,5,6,7,8-hexahydroquinazolin-2-ylthio)-N-phenylbutanamide]	76 ± 1%	500 ± 100 nM		
O=C(CCCSc1nc2c(c(=O)[nH]1)CCCC2)Nc1nc2ccccc2[nH]1 [Compound 3d, N-(1H-Benzo[d]imidazol-2-yl)-4-(4-oxo-3,4,5,6,7,8-hexahydroquinazolin-2-ylthio)butanamide]	77 ± 2%	500 ± 200 nM	> 230 °C	
O=C(CCCSc1nc2ccccc2c(=O)[nH]1)Nc1ccc(OC(F)F)cc1 [Compound 4a, N-(4-(Difluoromethoxy)phenyl)-4-(4-oxo-3,4-dihydroquinazolin-2-ylthio)butanamide]	78 ± 3%	500 ± 100 nM	210 to 211 °C	
O=C(CCCSc1nc2ccccc2c(=O)[nH]1)Nc1ccccc1 [Compound 4b, 4-(4-Oxo-3,4-dihydroquinazolin-2-ylthio)-N-phenylbutanamide]	64 ± 4%	800 ± 100 nM		
O=C(CCCSc1nc2ccccc2c(=O)[nH]1)Nc1ccc(F)cc1 [Compound 4c, N-(4-Fluorophenyl)-4-((4-oxo-3,4-dihydroquinazolin-2-yl)thio)butanamide]	73 ± 2%	640 ± 60 nM	216 to 217 °C	
O=C(CCCSc1nc2ccccc2c(=O)[nH]1)Nc1nc2ccccc2[nH]1 [Compound 4d, N-(1H-Benzo[d]imidazol-2-yl)-4-(4-oxo-3,4-dihydroquinazolin-2-ylthio)butanamide]	81 ± 3%	300 ± 100 nM	> 230 °C	
CCCCCCNC(=O)CCCSc1nc2ccccc2c(=O)[nH]1 [Compound 4e, N-Hexyl-4-(4-oxo-3,4-dihydroquinazolin-2-ylthio)butanamide]	56 ± 1%	900 ± 300 nM		
CN[C@@H]1C[C@H]2O[C@@](C)([C@@H]1OC)n1c3ccccc3c3c4c(c5c6ccccc6n2c5c31)C(=O)NC4 [STS, staurosporine, reference compound]				cell death [15]: Significant cell death
CNC(=O)[C@@H](NC(=O)[C@H](CC(C)C)[C@H](O)C(=O)NO)C(C)(C)C [marimastat, reference compound]				inhibition of MMP-9 catalytic activity [2]: no substrate cleavage was observed; cellular adhesion (HT1080 cells [13]): no observable effect on cell attachment; formation of focal adhesion contact sites ([14]; 80 nM, p-FAK and p-PAX): did not prevent the formation of focal adhesion contact sites
